In US20220298141A1, “ENZYME INHIBITORS” (KALVISTA PHARMACEUTICALS LIMITED, priority 2019, published 2022) one finds IC50 data, which are given here for 51 compounds.

The term IC50 denotes the concentration that inhibits the measured activity by half.

The target in the assay is T1, Human Factor XIIa (Homo sapiens, UniProt P00748).
T1 construct: purchased Enzyme Research Laboratories
T1 sequence (P00748 373-615 limits assumed): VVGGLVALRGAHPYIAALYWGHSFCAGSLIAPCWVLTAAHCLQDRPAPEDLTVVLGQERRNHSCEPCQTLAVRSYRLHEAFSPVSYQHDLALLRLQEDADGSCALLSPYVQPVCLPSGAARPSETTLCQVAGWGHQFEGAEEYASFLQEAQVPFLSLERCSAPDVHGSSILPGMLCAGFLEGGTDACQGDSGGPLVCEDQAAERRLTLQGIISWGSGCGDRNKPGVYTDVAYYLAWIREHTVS
T1 sequence (P00748 20-372 partner limits assumed): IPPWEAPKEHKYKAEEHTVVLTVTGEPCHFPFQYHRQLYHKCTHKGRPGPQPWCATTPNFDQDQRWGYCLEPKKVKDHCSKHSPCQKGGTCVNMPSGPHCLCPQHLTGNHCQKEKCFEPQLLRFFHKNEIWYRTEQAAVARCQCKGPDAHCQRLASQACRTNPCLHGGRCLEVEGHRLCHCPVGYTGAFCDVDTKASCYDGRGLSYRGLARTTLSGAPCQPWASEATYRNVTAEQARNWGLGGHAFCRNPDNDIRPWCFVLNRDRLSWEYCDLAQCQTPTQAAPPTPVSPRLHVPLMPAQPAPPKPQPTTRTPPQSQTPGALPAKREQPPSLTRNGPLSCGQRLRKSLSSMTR
The assay is described as follows: Determination of Factor XIIa inhibitory activity in vitro (fluorogenic substrate H-DPro-Phe-Arg-AFC). The note with it: Human Factor XIIa (Enzyme Research Laboratories), 25° C., read-out: Human FXIIa IC50. It counts as biochemical. The procedure: Determination of the % Inhibition for FXIIa
Factor XIIa inhibitory activity in vitro was determined using standard published methods (see e.g. Shori et al., Biochem. Pharmacol., 1992, 43, 1209; Baeriswyl et al., ACS Chem. Biol., 2015, 10 (8) 1861; Bouckaert et al., European Journal of Medicinal Chemistry 110 (2016) 181). Human Factor XIIa (Enzyme Research Laboratories) was incubated at 25° C. with the fluorogenic substrate H-DPro-Phe-Arg-AFC and various concentrations of the test compound. Residual enzyme activity (initial rate of reaction) was determined by measuring the […] and the IC50 value for the test compound was determined.
Consider `Nc1nccc2cc(CNC(=O)c3cc(Cl)cnc3NC3CCCC3)ccc12` [Example 1.01], for which the IC50 is 10 to 40 µM.
In the case of `Nc1nccc2cc(CNC(=O)c3cc(Cl)cnc3NCc3ccccc3)ccc12` [Example 1.02] it was 10 to 40 µM; in that of `Nc1nccc2cc(CNC(=O)c3cc(Cl)cnc3NCC3CCOCC3)ccc12` [Example 1.03], 10 to 40 µM.
On to `Nc1nccc2cc(CNC(=O)c3cc(Cl)cnc3Nc3ccccc3)ccc12` [Example 1.04], for which the half-inhibitory concentration (IC50) is 10 to 40 µM.
The value for `COc1ccc(CNc2ncc(Cl)cc2C(=O)NCc2ccc3c(N)nccc3c2)cc1` [Example 1.05] was 10 to 40 µM; that for `CS(=O)(=O)c1cccc(CNc2ncc(Cl)cc2C(=O)NCc2ccc3c(N)nccc3c2)c1` [Example 1.06] was 3 to 10 µM; that for `CN(C)c1cccc(CNc2ncc(Cl)cc2C(=O)NCc2ccc3c(N)nccc3c2)c1` [Example 1.07] was 10 to 40 µM.
Turning to `COCCNc1ncc(Cl)cc1C(=O)NCc1ccc2c(N)nccc2c1` [Example 1.08], the IC50 lay in the range of 3 to 10 µM.
The value for `CN(C)CCNc1ncc(Cl)cc1C(=O)NCc1ccc2c(N)nccc2c1` [Example 1.09] was 1 to 3 µM; that for `Nc1nccc2cc(CNC(=O)c3cc(Cl)cnc3NCCN3CCCCC3)ccc12` [Example 1.10] was 1 to 3 µM; that for `Nc1nccc2cc(CNC(=O)c3cc(Cl)cnc3NCCN3CCOCC3)ccc12` [Example 1.11] was 3 to 10 µM.
For the compound `CN1CCN(CCNc2ncc(Cl)cc2C(=O)NCc2ccc3c(N)nccc3c2)CC1` [Example 1.12], the IC50 is 1 to 3 µM.
The value for `CN1CCC(CNc2ncc(Cl)cc2C(=O)NCc2ccc3c(N)nccc3c2)CC1` [Example 1.13, N-[(1-Amino-6-isoquinolyl)methyl]-5-chloro-2-[(1-methyl-4-piperidyl)methylamino]pyridine-3-carboxamide] was 0.3 to 1 µM; that for `Nc1nccc2cc(CNC(=O)c3cc(Cl)cnc3NCCOc3ccccc3)ccc12` [Example 1.14] was 3 to 10 µM.
`Nc1nccc2cc(CNC(=O)c3cc(Cl)cnc3NCCCOc3ccccc3)ccc12` [Example 1.15]: the IC50 was in the range of 10 to 40 µM.
In the case of `Nc1nccc2cc(CNC(=O)c3cc(Cl)cnc3NCCn3ccnc3)ccc12` [Example 1.16] it was 3 to 10 µM; in that of `Nc1nccc2cc(CNC(=O)c3cc(Cl)cnc3NCCN3CCS(=O)(=O)CC3)ccc12` [Example 1.17], 3 to 10 µM; in that of `CC(C)CCNc1ncc(Cl)cc1C(=O)NCc1ccc2c(N)nccc2c1` [Example 1.18], 10 to 40 µM.
In the case of `CC(=O)NCCNc1ncc(Cl)cc1C(=O)NCc1ccc2c(N)nccc2c1` [Example 1.19] it was 3 to 10 µM.
The value for `CC(=O)NCCCNc1ncc(Cl)cc1C(=O)NCc1ccc2c(N)nccc2c1` [Example 1.20] was 3 to 10 µM.
With `Nc1nccc2cc(CNC(=O)c3cc(Cl)cnc3NCc3ccc4c(c3)OCO4)ccc12` [Example 1.21], the half-inhibitory concentration (IC50) is 10 to 40 µM.
As to `CN1CCCc2cc(CNc3ncc(Cl)cc3C(=O)NCc3ccc4c(N)nccc4c3)ccc21` [Example 1.22], the IC50 fell in the range of 3 to 10 µM.
Turning to `Nc1nccc2cc(CNC(=O)c3cc(Cl)cnc3NCc3ccncc3)ccc12` [Example 1.23], the IC50 was 3 to 10 µM.
`Nc1nccc2cc(CNC(=O)c3cc(Cl)cnc3NCc3cccnc3)ccc12` [Example 1.24]: the IC50 lay within 3 to 10 µM.
In the case of `CC(C)N(CCNc1ncc(Cl)cc1C(=O)NCc1ccc2c(N)nccc2c1)C(C)C` [Example 1.25] it was 0.3 to 1 µM; in that of `CC(C)N1CCN(CCCNc2ncc(Cl)cc2C(=O)NCc2ccc3c(N)nccc3c2)CC1` [Example 1.26], 1 to 3 µM; in that of `Nc1nccc2cc(CNC(=O)c3cc(Cl)cnc3NCc3cccc(N4CCCCC4)c3)ccc12` [Example 1.27], 10 to 40 µM.
In the case of `Nc1nccc2cc(CNC(=O)c3cc(Cl)cnc3NCC3CCN(c4ccncc4)CC3)ccc12` [Example 1.28] it was 0.3 to 1 µM.
`Nc1nccc2cc(CNC(=O)c3cc(Cl)cnc3NCCN3CCCC3=O)ccc12` [Example 1.29]: the IC50 was 3 to 10 µM.
The value for `CN1CCN(c2ccccc2CNc2ncc(Cl)cc2C(=O)NCc2ccc3c(N)nccc3c2)CC1` [Example 1.30] was 3 to 10 µM; that for `Nc1nccc2cc(CNC(=O)c3cc(Cl)cnc3NCC3CCN(Cc4ccccc4)CC3)ccc12` [Example 1.31] was 1 to 3 µM; that for `Nc1nccc2cc(CNC(=O)c3cc(Cl)cnc3NCc3ccc(N4CCCCC4=O)cc3)ccc12` [Example 1.32] was 10 to 40 µM.
The value for `Nc1nccc2cc(CNC(=O)c3cc(Cl)cnc3NCc3cccc(N4CCCC4=O)c3)ccc12` [Example 1.33] was 10 to 40 µM; that for `Nc1nccc2cc(CNC(=O)c3cc(Cl)cnc3NCc3ccc(CN4CCCC4=O)cc3)ccc12` [Example 1.34] was 10 to 40 µM; that for `CN1CCC(N(C)c2ncc(Cl)cc2C(=O)NCc2ccc3c(N)nccc3c2)CC1` [Example 1.35] was 10 to 40 µM.
On to `CN1CCN(CCCNc2ncc(Cl)cc2C(=O)NCc2ccc3c(N)nccc3c2)CC1` [Example 1.36], for which the IC50 was 1 to 3 µM.
In the case of `COc1ccc(Nc2ncc(Cl)cc2C(=O)NCc2ccc3c(N)nccc3c2)cc1` [Example 1.37] it was 10 to 40 µM.
`COc1ccccc1Nc1ncc(Cl)cc1C(=O)NCc1ccc2c(N)nccc2c1` [Example 1.38]: the IC50 was in the range of 10 to 40 µM.
In the case of `CN(C)c1ccc(Nc2ncc(Cl)cc2C(=O)NCc2ccc3c(N)nccc3c2)cc1` [Example 1.39] it was 10 to 40 µM.
For the compound `CN(C)c1cccc(Nc2ncc(Cl)cc2C(=O)NCc2ccc3c(N)nccc3c2)c1` [Example 1.40], the IC50 is 10 to 40 µM.
`CN(C)c1ccccc1Nc1ncc(Cl)cc1C(=O)NCc1ccc2c(N)nccc2c1` [Example 1.41]: the IC50 fell in the range of 10 to 40 µM.
In the case of `CS(=O)(=O)Nc1cccc(Nc2ncc(Cl)cc2C(=O)NCc2ccc3c(N)nccc3c2)c1` [Example 1.42] it was 10 to 40 µM; in that of `CN1CCC(CNc2cccc(C(=O)NCc3ccc4c(N)nccc4c3)n2)CC1` [Example 4.26], 1 to 3 µM.
The value for `CN1CCCN(c2ncc(C(=O)NCc3ccc4c(N)nccc4c3)cc2Cl)CC1` [Example 8.01] was 10 to 40 µM; that for `COc1ccc(CN(C)c2ncc(C(=O)NCc3ccc4c(N)nccc4c3)cc2Cl)cc1` [Example 8.02] was 10 to 40 µM.
On to `CC(C)N1CCN(c2ncc(C(=O)NCc3ccc4c(N)nccc4c3)cc2Cl)CC1` [Example 8.03], for which the IC50 was in the range of 10 to 40 µM.
In the case of `Nc1nccc2cc(CNC(=O)c3cnc(N4CC(O)C4)c(Cl)c3)ccc12` [Example 8.04] it was 10 to 40 µM; in that of `CN(C)CCCOc1cccc(CN(C)c2ncc(C(=O)NCc3ccc4c(N)nccc4c3)cc2Cl)c1` [Example 8.05], 10 to 40 µM.
The value for `CN1CCC(N(C)c2ncc(C(=O)NCc3ccc4c(N)nccc4c3)cc2Cl)CC1` [Example 8.06, N-((1-aminoisoquinolin-6-yl)methyl)-5-chloro-6-(methyl(1-methylpiperidin-4-yl)amino)nicotinamide] was 1 to 3 µM; that for `CN(c1ncc(C(=O)NCc2ccc3c(N)nccc3c2)cc1Cl)C1CCOCC1` [Example 8.07] was 3 to 10 µM.
The value for `Nc1nccc2cc(CNC(=O)c3cnc(NC4CCCC4)c(Cl)c3)ccc12` [Example 11.01, N-((1-aminoisoquinolin-6-yl)methyl)-5-chloro-6-(cyclopentylamino)nicotinamide] was 10 to 40 µM.
